Laboratory results: publication PMC8624133, “10th Trends in Medical Mycology Held on 8 to 11 October 2021, Aberdeen, Scotland, Organized by the European Confederation of Medical Mycology (ECMM)” (Journal of Fungi, 2021)
In brackets after ≈: the same amount, converted by molar mass. Like-named read-outs stand apart in the source and are kept apart here. Starred links: 1 amine or outer side, 2 acyl side, 3 side chain; linkers in the order of their positions; H or OH if unused. Positions of bridges follow the written chain, without caps; N, C: chain ends. Non-standard residues stand in square brackets, D forms with d. Residues, ends and D or L forms follow the SMILES beside them. *: point of attachment. Orn(4R-OH,5R-OCH2CH2NMe3+) = C[N+](C)(C)CCO[C@@H](N[*:3])[C@H](O)C[C@H](N[*:1])C(=O)[*:2]; pTerphenylCO(4''-OnC5H11) = CCCCCOc1ccc(-c2ccc(-c3ccc(C(=O)*)cc3)cc2)cc1; Orn(4R-OH,5R-OH) = O=C([C@H](C[C@@H](O)[C@@H](O)N[*:3])N[*:1])[*:2]; hTyr(3S-OH,4S-OH) = N[C@H](C(=O)O)[C@H](O)[C@@H](O)c1ccc(O)cc1; Pro(3S-OH,4S-Me) = C[C@H]1CN[C@H](C(=O)O)[C@H]1O; Hyp = O=C(O)[C@@H]1C[C@@H](O)CN1

What was measured:
C. auris = assay: EUCAST EDef 7.3.1 MIC and checkerboard microdilution; assay type: cell-based, Candida auris
Protocol: Methods: We studied 22 C. auris isolates obtained from different clinical samples from the Hospital La Fe, Valencia, Spain (eight from blood culture, seven from oropharynx and seven from urine cultures). Candida parapsilosis ATCC 22019 and Candida krusei ATCC 6258 were used as quality controls. The minimum inhibitory concentration (MIC) was determined according to the European Committee on Antibiotic Susceptibility Testing (EUCAST) EDef 7.3.1 document. The interaction between citral and the rest of antifungal drugs was assessed by a checkerboard microdilution method. […] The in vitro interaction of the drug combinations was interpreted in terms of the fractional inhibitory concentration index (FICI) as follows: FICI < 1, synergistic; FICI equal to 1, additive; and FICI > 1, indifferent or antagonistic.

[1] = test system: Parathyridaria percutanea; assay: In vitro antifungal susceptibility; assay type: cell-based
[2] = test system: Rasamsonia argillacea species complex; assay: Antifungal susceptibility testing; assay type: cell-based; settings: sputum isolate of a CF patient
[3] = test system: Phaeoacremonium parasiticum; assay: Antifungal susceptibility testing; assay type: cell-based
Protocol: Results: Cultures for bacteria were sterile. Culture on Sabouraud was positive after 5 days of incubation, showing slow growing and initially white colonies. […] Its identification was performed by sequencing the internal transcribed spacer (ITS) region of ribosomal DNA, being the isolate identified as Phaeoacremonium parasiticum (100% homology).

C. glabrata = assay: ARIA surveillance, CLSI M27 broth microdilution; assay type: cell-based, Candida glabrata; settings: CLSI M60
Protocol: Materials & Methods: Isolates (n = 730) were collected and re-identified by MALDI-TOF or molecular methods. […] Percentage susceptibility (%S) or wild-type (%WT) were calculated according to CLSI breakpoints (CLSI supplement M60) or epidemiological cut-off values (CLSI supplement M59), respectively.

[4] = test system: invasive C. glabrata strains; assay: YeastOne Sensititre colorimetric broth microdilution; assay type: cell-based, Candida glabrata; settings: Nakaseomyces glabratus
Protocol: Material and Method: Thirty-six clinical isolates of invasive C. glabrata strains were analyzed in this study. Minimum inhibitory concentrations (MICs) were determined using colorimetric broth microdilution (YeastOneSensititre, Trek diagnostics). Genomic DNA was isolated using Qiagen DNA extraction Kit. The FKS1 and FKS2 gene fragment were amplified and PCR products were purified prior to sequencing. Double-strand sequencing of PCR products was performed using Sanger sequencing methodology. Sequences were analyzed with MEGA-6 software to identify specific SNP combination against wild-type sequences of C. glabrata.

Candida auris isolates = assay: microbe, parasite or virus in culture; assay type: cell-based
C. fermentati = assay: EUCAST E. Def 7.3.2 microdilution; assay type: cell-based, Candida fermentati; settings: n = 2
C. guilliermondii = assay: EUCAST E. Def 7.3.2 microdilution; assay type: cell-based, Candida guilliermondii; settings: n = 62
[5] = test system: C. albicans and C. glabrata; assay: FUNGINOS candidemia survey, susceptibility according to CLSI; assay type: cell-based; settings: share of isolates
Aspergillus tubingensis = assay: EUCAST susceptibility; assay type: cell-based; settings: read-out: MIC
Protocol: The fungus was identified as Aspergillus niger and liposomal amphotericine B was switched to anidulafungin pending susceptibility testing as the patient had pre-existing […] (eGFR CKD-EPI 40 mL/min/1.73 m²). […] Despite increasing the anidulafungin dosage to 200 mg daily and adequate voriconazol levels, serum galactomannan levels remained elevated (index 2.1 at discharge). […] Since no extracardiac sources were found and the patient did well clinically, they were discharched. Anidulafungin was switched to caspofungin to facilitate ongoing IV treatment in the outpatient setting. […] The patient died shortly after. Obduction was not performed.

[6] = test system: C. auris clinical strains; assay: organism not typed; assay type: cell-based, Candida auris; settings: range, 78 strains from patients with COVID-19
C. glabrata isolates = assay: Rapid XTT assay based on EUCAST E.Def 7.3; assay type: cell-based, Candida glabrata; settings: […], mean ± SD
R. delemar 99–880 = assay: CLSI M38 in vitro susceptibility; assay type: cell-based, Rhizopus delemar
Protocol: (§1) Methods & Materials: In vitro susceptibility was conducted by the CLSI M38 method using a clinical isolate of Rhizopus delemar (a common cause of mucormycosis). ICR mice were immunosuppressed with cyclophosphamide and cortisone acetate on days −2, +3, and +8, relative to infection with intratracheally instilled R. delemar. […] Mice survival through Day +21 served as the primary endpoint.

R. delemar = assay: Murine mucormycosis, immunosuppressed mice infected intratracheally; assay type: in vivo, ICR mice; settings: n = 20/arm
Protocol: as §1

[7] = following inhaled delivery, ref Colley T et al., 2017, 2019; cited from earlier work
Description: A potent, effective inhaled anti-fungal agent with prolonged lung tissue residence and minimal systemic […] would be a valuable adjunct to current therapeutic options. To date, treatment using inhaled antifungal agents has been limited to repurposing available systemic medicines. Opelconazole is a novel triazole antifungal agent which was specifically designed for inhaled use and which is being developed as an inhaled treatment for pulmonary fungal disease.

[8] = test system: serious or life-threatening pulmonary aspergillosis; assay: Special Needs program: inhaled opelconazole in patients; assay type: in vivo, human
Description: Opelconazole has been supplied to patients with serious or life-threatening pulmonary aspergillosis who have not responded to available mold-active therapies under a Special Needs program regulated in the United Kingdom by the Medicines and Healthcare products Regulatory Agency. Successful outcomes in the first two patients who developed invasive pulmonary aspergillosis due to infections with A. fumigatus complex shortly after lung transplantation have been reported [Pagani 2020].

Candida albicans (CA) = assay: Post-antifungal effect (PAFE); assay type: cell-based; settings: CA clinical isolate; all concentrations (1×, 4×, 16× bMIC), 1 h exposure
Protocol: (§2) Materials &Methods: Six Candida spp. […] For PAFE determinations, antifungal concentrations of 1×, 4×, and 16× bMiC were used. A starting inoculum of 1–[…] CFU/mLwas added to RPMl with the antifungal agent. Post 1 h exposure, cells were washed 3 times and resuspended in 10 mL of pre-warmed RPMl. Colony counts were performed at to, 1 h before and after final washt t2, t4, t8, t12, t24 and t48 h. PAFE was calculated as the difference in time required for isolates to rrow1-logio following the final cell wash compared to the growth control.

C. parapsilosis (CPRP) = assay: Post-antifungal effect (PAFE); assay type: cell-based, Candida parapsilosis; settings: CPRP ATCC 22019, all concentrations
Protocol: as §2

[9] = Open-label single-dose study in hepatic impairment; assay type: in vivo, human
Protocol: Materials &Methods: The safety, tolerability, and PK of rezafungin in subjects with moderate (Group 1a) and severe (Group 2a) HI (Child-Pugh class Band C) and healthysubjects (HS, Groups 1b and 2b) was investigated in this open-label, single-dose study. Each Hl group enrolled was matched to a separate HS group (n = 8 each 32 total) by age, sex and body mass index (BMI) and received a single 400-mg intravenous 1 h infusion of RZF.Plasma PK sampling was performed at various time points through 336 h post- dose. Rezafungin PKparameters were derived using non-compartmental analysis. Safety and tolerability were assessed throughout the study.

C. glabrata (CGLA) = assay: Post-antifungal effect (PAFE); assay type: cell-based, Candida glabrata
Protocol: as §2

C. albicans = assay: Neutrophil control of hyphal growth (swarming); assay type: cell-based, Candida albicans; settings: neutrophils of SOT and SCT recipients, ex vivo
Protocol: Methods and Materials: Twenty-one SOT, 19 SCT and 23 healthy control patients (HC) were identified and consented at primary care/outpatient transplant clinics. Transplant recipients were enrolled at a time period two to four months post-transplant. Following consent and peripheral blood collection, neutrophils were freshly isolated and co-incubated with C. albicans and the percent remaining live yeast was measured using a viability dye compared to a standard control to determine fungal elimination by neutrophils. Growth inhibition of C. albicans was also quantified by neutrophil swarming to yeast spotted onto glass slides, assessed by live cell imaging with or without G-CSF. Effect of soluble factors on neutrophils function was determined by incubation of healthy neutrophils with SOT and SCT serum and measuring ability to control C. albicans.

[10] = 11 treated patients and 1 on prophylaxis

CCCCCOc1ccc(-c2ccc(-c3ccc(C(=O)N[C@H]4C[C@@H](O)[C@@H](O)NC(=O)[C@@H]5[C@@H](O)[C@@H](C)CN5C(=O)[C@H]([C@@H](C)O)NC(=O)[C@H]([C@H](O)[C@@H](O)c5ccc(O)cc5)NC(=O)[C@@H]5C[C@@H](O)CN5C(=O)[C@H]([C@@H](C)O)NC4=O)cc3)cc2)cc1 [anidulafungin] ({pTerphenylCO(4''-OnC5H11)}-[Orn(4R-OH,5R-OH)]T[Hyp][hTyr(3S-OH,4S-OH)]T[Pro(3S-OH,4S-Me)]; lactam 1-C)
MIC of anidulafungin in combination with citral (C. auris): 0.016 µg/mL | MIC (C. auris; Candidozyma auris, 22 clinical isolates): 0.125 µg/mL | in vitro susceptibility category [1]: resistance | minimal inhibitory concentrations (MIC) [2]: low MIC | minimal inhibitory concentrations (MIC), in words [3]: higher | susceptibility (C. glabrata; Italy): 15.8% | susceptibility (C. glabrata; Panama): 91.7% | MIC ([4]; 36 clinical isolates, read-out: median (Min–Max) MIC): 0.06 µg/mL | MIC ([4]; isolate with FKS2 I661T): 0.06 µg/mL | categorised as resistant on MIC (Candida auris isolates; CDC guidelines): none | MIC (Candida auris isolates; Candidozyma auris, […], IQR given, read-out: median MIC): 0.25 µg/mL (≈ 0.219 µM) | GM (C. fermentati): 0.25 µg/mL | MIC Range (C. fermentati): 0.25 µg/mL (≈ 0.219 µM) | MIC50 (C. guilliermondii; Meyerozyma guilliermondii): 0.25 µg/mL (≈ 0.219 µM) | MIC90 (C. guilliermondii; Meyerozyma guilliermondii): 0.5 µg/mL (≈ 0.438 µM) | GM (C. guilliermondii): 0.304 µg/mL | MIC Range (C. guilliermondii): 0.008 to 1 µg/mL | non-susceptibility [5]: 2% | MIC (Aspergillus tubingensis): 0.03 µg/mL (≈ 0.0263 µM) | MIC [6]: 0.015 to 8 µg/mL (≈ 0.0132 to 7.02 µM) | XTT-absorbance in drug-treated wells (C. glabrata isolates; drug-free 0.37 ± 0.04): 0.11 ± 0.03 | XTT-absorbance in drug-treated wells (C. glabrata isolates; drug-free 0.39 ± 0.05): 0.25 ± 0.06

CC(C)[C@@H](C)[C@@]1(C)CC[C@]2(C)[C@H]3CC[C@@H]4[C@@]5(COC[C@@]4(C)[C@@H](OC[C@](C)(N)C(C)(C)C)[C@H](n4ncnc4-c4ccncc4)C5)C3=CC[C@@]2(C)[C@@H]1C(=O)O [IBREXA, Ibrexafungerp]
minimum effective concentration (MEC) (R. delemar 99–880): > 8 µg/mL | % Survival (R. delemar; through Day +21, placebo 0): 35% | Median Survival (R. delemar; treatment from 24 h post infection, IBREXA 30 mg/kg po BID 7 d, LAMB 10 mg/kg iv 4 d, POSA 30 mg/kg po QD 7 d, placebo 8): 15 days

Cc1cc(N2CCN(c3ccc(C(=O)Nc4ccc(F)cc4)cc3)CC2)ccc1OC[C@@H]1CO[C@@](Cn2cncn2)(c2ccc(F)cc2F)C1 [opelconazole]
local concentrations in the lung [7]: high | systemic bioavailability [7]: minimal | drug-drug interactions [8, 10]: no drug-drug interactions reported | tolerability [8, 10]: generally well tolerated | Favorable responses at 3 months ([8]; patients who received opelconazole as treatment after no response to mold-active therapies, number of patients): 9 out of the 11

CCCCCOc1ccc(-c2ccc(-c3ccc(C(=O)N[C@H]4C[C@@H](O)[C@@H](OCC[N+](C)(C)C)NC(=O)[C@@H]5[C@@H](O)[C@@H](C)CN5C(=O)[C@H]([C@@H](C)O)NC(=O)[C@H]([C@H](O)[C@@H](O)c5ccc(O)cc5)NC(=O)[C@@H]5C[C@@H](O)CN5C(=O)[C@H]([C@@H](C)O)NC4=O)cc3)cc2)cc1 [rezafungin, Rezafungin] ({pTerphenylCO(4''-OnC5H11)}-[Orn(4R-OH,5R-OCH2CH2NMe3+)]T[Hyp][hTyr(3S-OH,4S-OH)]T[Pro(3S-OH,4S-Me)]; lactam 1-C)
PAFE (Candida albicans (CA)): > 14.9 h | PAFE (C. parapsilosis (CPRP)): > 40 h | AEs, moderate hepatic impairment group ([9]; all mild severity): 5 | AEs, severe hepatic impairment group ([9]; all moderate severity, unrelated): 3 | AEs, all groups ([9]; in 7 of 32 subjects): 9 | mean exposure lower than in healthy subjects ([9]; moderate or severe HI, single 400-mg intravenous 1 h infusion, AUC, Cmax): ~ 30% | mean half-life ([9]; range across groups, non-compartmental analysis): 110 to 124 h | PAFE (C. glabrata (CGLA); CGLA #3 isolate, 1× bMIC): > 46.7 h | PAFE (C. glabrata (CGLA); both CGLA strains, all concentrations): > 40 h

B1: G-CSF (protein, UniProt P09919 31-207, looked up)
Granulocyte …: TPLGPASSLPQSFLLKCLEQVRKIQGDGAALQEKLVSECATYKLCHPEELVLLGHSLGIPWAPLSSCPSQALQLAGCLSQLHSGLFLYQGLLQALEGISPELGPTLDTLQLDVADFATTIWQQMEELGMAPALQPTQGAMPAFASAFQRRAGGVLVASHLQSFLEVSYRVLRHLAQP
neutrophil ability to control hyphal growth (C. albicans): partially restored
